Reference: ChEMBL document CHEMBL1201862, “PubChem BioAssay data set” (2004)
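Exposure lasted 48 hours, with cells grown in 96-well plates and compounds tested at five concentrations. The concentration for 50% growth inhibition is given as GI50.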 The source made the active and inactive calls. No stated cut-off is given here; in the data, active = GI50 up to about 1.1 µM and inactive = higher.

Tests used:
Assay in all cases: inhibition of tumour cell growth, NCI panel, 48 h
[1] = tested on: SK-MEL-28
[2] = tested on: K562
[3] = tested on: EKVX
[4] = tested on: RPMI-8226
[5] = tested on: SNB-19
[6] = tested on: SK-MEL-5
[7] = tested on: U-251
[8] = tested on: SF-268
[9] = tested on: A549
[10] = tested on: M19-MEL
[11] = tested on: HCT-116
[12] = tested on: HOP-92
[13] = tested on: OVCAR-5
[14] = tested on: DLD-1
[15] = tested on: OVCAR-3
[16] = tested on: CCRF-CEM
[17] = tested on: NCI-H460
[18] = tested on: OVCAR-8
[19] = tested on: KM12
[20] = tested on: M14

CN(C)CCNC(=O)c1cccc2nc(-c3ccccc3)oc12
GI50 [1]: 60.1 µM (inactive)
GI50 [2]: 1.94 µM (inactive)
GI50 [3]: 6.97 µM (inactive)
GI50 [4]: 34.6 µM (inactive)
GI50 [5]: 19.7 µM (inactive)
GI50 [6]: 22.3 µM (inactive)
GI50 [7]: 46.9 µM (inactive)
GI50 [8]: > 64.6 µM (inactive)
GI50 [9]: 42.6 µM (inactive)
GI50 [10]: 33 µM (inactive)
GI50 [11]: 32.1 µM (inactive)
GI50 [12]: 13 µM (inactive)
GI50 [13]: 38.5 µM (inactive)
GI50 [14]: 31.9 µM (inactive)
GI50 [15]: 41.9 µM (inactive)
GI50 [16]: 45.6 µM (inactive)
GI50 [17]: 30.4 µM (inactive)
GI50 [18]: 35.9 µM (inactive)
GI50 [19]: 53.5 µM (inactive)

COc1ccc(C(=O)Cc2cc(OC)ccc2OC)cc1
GI50 [2]: > 100 µM (inactive)
GI50 [3]: > 100 µM (inactive)
GI50 [4]: 75.3 µM (inactive)
GI50 [5]: > 100 µM (inactive)
GI50 [6]: > 100 µM (inactive)
GI50 [7]: > 100 µM (inactive)
GI50 [8]: 61.4 µM (inactive)
GI50 [9]: > 100 µM (inactive)
GI50 [10]: > 100 µM (inactive)
GI50 [20]: > 100 µM (inactive)
GI50 [11]: > 100 µM (inactive)
GI50 [13]: > 100 µM (inactive)
GI50 [14]: > 100 µM (inactive)
GI50 [15]: > 100 µM (inactive)
GI50 [16]: > 100 µM (inactive)
GI50 [17]: > 100 µM (inactive)
GI50 [18]: > 100 µM (inactive)

O=C(O)C12CC3CC(C1)C2C=C3P(=O)(O)O (stereo unspecified)
GI50 [1]: > 100 µM (inactive)
GI50 [2]: > 100 µM (inactive)
GI50 [3]: > 100 µM (inactive)
GI50 [4]: > 100 µM (inactive)
GI50 [7]: > 100 µM (inactive)
GI50 [8]: > 100 µM (inactive)
GI50 [10]: > 100 µM (inactive)
GI50 [20]: > 100 µM (inactive)
GI50 [11]: > 100 µM (inactive)
GI50 [12]: > 100 µM (inactive)
GI50 [13]: > 100 µM (inactive)
GI50 [14]: > 100 µM (inactive)
GI50 [15]: > 100 µM (inactive)
GI50 [16]: > 100 µM (inactive)
GI50 [17]: > 100 µM (inactive)
GI50 [18]: > 100 µM (inactive)
GI50 [19]: > 100 µM (inactive)

CC1(C)CC2(CC(C)(C)N1O)NC(=O)OC2=O
GI50 [1]: > 100 µM (inactive)
GI50 [2]: > 100 µM (inactive)
GI50 [3]: > 100 µM (inactive)
GI50 [4]: > 100 µM (inactive)
GI50 [5]: > 100 µM (inactive)
GI50 [6]: > 100 µM (inactive)
GI50 [7]: > 100 µM (inactive)
GI50 [8]: > 100 µM (inactive)
GI50 [9]: > 100 µM (inactive)
GI50 [10]: > 100 µM (inactive)
GI50 [11]: > 100 µM (inactive)
GI50 [12]: > 100 µM (inactive)
GI50 [13]: > 100 µM (inactive)
GI50 [14]: > 100 µM (inactive)
GI50 [15]: > 100 µM (inactive)
GI50 [16]: > 77.4 µM (inactive)
GI50 [17]: > 31.6 µM (inactive)
GI50 [18]: > 100 µM (inactive)
GI50 [19]: > 100 µM (inactive)

CN1CN(C(=O)N2CN(C)C(=O)N(C)C2)CN(C)C1=O
GI50 [1]: > 100 µM (inactive)
GI50 [2]: > 100 µM (inactive)
GI50 [3]: > 100 µM (inactive)
GI50 [4]: > 100 µM (inactive)
GI50 [5]: > 100 µM (inactive)
GI50 [8]: > 100 µM (inactive)
GI50 [9]: > 100 µM (inactive)
GI50 [10]: > 100 µM (inactive)
GI50 [20]: > 100 µM (inactive)
GI50 [11]: > 100 µM (inactive)
GI50 [13]: > 100 µM (inactive)
GI50 [14]: > 100 µM (inactive)
GI50 [15]: > 100 µM (inactive)
GI50 [16]: > 100 µM (inactive)
GI50 [18]: > 100 µM (inactive)
GI50 [19]: > 100 µM (inactive)

O=C(/N=N/c1cc(Cl)ccc1Cl)NNc1cc(Cl)ccc1Cl
GI50 [1]: 23.5 µM (inactive)
GI50 [2]: 14.6 µM (inactive)
GI50 [4]: 11.9 µM (inactive)
GI50 [5]: > 10 µM (inactive)
GI50 [6]: 12.7 µM (inactive)
GI50 [7]: 16.7 µM (inactive)
GI50 [20]: 17.1 µM (inactive)
GI50 [11]: 18.6 µM (inactive)
GI50 [12]: 15.2 µM (inactive)
GI50 [13]: 17.6 µM (inactive)
GI50 [15]: 16.8 µM (inactive)
GI50 [16]: 13.6 µM (inactive)
GI50 [17]: 17.3 µM (inactive)
GI50 [18]: 26.8 µM (inactive)
GI50 [19]: 16.7 µM (inactive)

CC(=O)OC1CC2(O)C(CCC3(C)C(c4ccc(=O)oc4)CCC32O)C2(C)CCC(O)C=C12 (stereo unspecified)
GI50 [1]: 0.0375 µM (active)
GI50 [2]: 0.0375 µM (active)
GI50 [3]: 0.0139 µM (active)
GI50 [4]: 0.00993 µM (active)
GI50 [5]: 0.0466 µM (active)
GI50 [6]: 0.00439 µM (active)
GI50 [7]: 0.0169 µM (active)
GI50 [8]: 0.0375 µM (active)
GI50 [10]: 0.0234 µM (active)
GI50 [11]: 0.0375 µM (active)
GI50 [12]: 0.0604 µM (active)
GI50 [13]: 0.104 µM (active)
GI50 [14]: 0.0375 µM (active)
GI50 [15]: 0.00469 µM (active)
GI50 [17]: 0.00454 µM (active)
GI50 [18]: 0.0152 µM (active)

CC(=O)OC1CC[C@@]2(C)C(=CC[C@@H]3[C@@H]2CC[C@]2(C)Nc4nn(S(C)(=O)=O)cc4C[C@@H]32)C1 (stereo partly specified)
GI50 [1]: 28.4 µM (inactive)
GI50 [2]: 12.1 µM (inactive)
GI50 [4]: 30 µM (inactive)
GI50 [5]: 79.4 µM (inactive)
GI50 [6]: 15.2 µM (inactive)
GI50 [7]: 36.1 µM (inactive)
GI50 [20]: 20.7 µM (inactive)
GI50 [12]: 49.5 µM (inactive)
GI50 [13]: 37.9 µM (inactive)
GI50 [15]: 24.2 µM (inactive)
GI50 [16]: 10.6 µM (inactive)
GI50 [17]: 18.7 µM (inactive)
GI50 [18]: 32.5 µM (inactive)
GI50 [19]: 31.8 µM (inactive)

CCOC(=O)C1=NN(c2ccccc2)C2=CC(C)=NN(C)C(=S)N21
GI50 [1]: > 100 µM (inactive)
GI50 [2]: > 100 µM (inactive)
GI50 [3]: > 100 µM (inactive)
GI50 [4]: > 100 µM (inactive)
GI50 [5]: > 100 µM (inactive)
GI50 [6]: > 100 µM (inactive)
GI50 [7]: > 100 µM (inactive)
GI50 [8]: > 100 µM (inactive)
GI50 [9]: > 100 µM (inactive)
GI50 [20]: > 100 µM (inactive)
GI50 [11]: > 100 µM (inactive)
GI50 [12]: > 100 µM (inactive)
GI50 [13]: > 100 µM (inactive)
GI50 [15]: > 100 µM (inactive)
GI50 [16]: > 100 µM (inactive)
GI50 [17]: 48.5 µM (inactive)
GI50 [18]: > 100 µM (inactive)
GI50 [19]: > 100 µM (inactive)

CCP(=S)(CC)CCl
GI50 [1]: > 100 µM (inactive)
GI50 [2]: > 100 µM (inactive)
GI50 [4]: > 100 µM (inactive)
GI50 [5]: > 100 µM (inactive)
GI50 [6]: > 100 µM (inactive)
GI50 [7]: > 100 µM (inactive)
GI50 [9]: > 100 µM (inactive)
GI50 [20]: > 100 µM (inactive)
GI50 [11]: > 100 µM (inactive)
GI50 [12]: 73.5 µM (inactive)
GI50 [13]: > 100 µM (inactive)
GI50 [15]: > 100 µM (inactive)
GI50 [16]: > 100 µM (inactive)
GI50 [17]: > 100 µM (inactive)
GI50 [18]: > 100 µM (inactive)
